# Data published in patent publication US20080108641A1, “Compounds for treating inflammatory disorders, demyelinating disdorders and cancers” (priority 2006, published 2008).
# pIC50: −log10 of the molar value.
# What was measured:
# [1] = system: colorectal cancer cell lines (HT29 & HCT116); assay: Microarray differential gene expression (CodeLink Human Whole Genome Bioarrays); assay type: cell-based
# IL-4 = assay: Mediator release, IL-4 (Con A-stimulated PBML, sandwich ELISA); assay type: cell-based; conditions: Homo sapiens
# Experimental: In this experiment, test compound and/or vehicle were preincubated with human peripheral blood mononuclear leukocyte (PBML, 1×10^6/ml) in RPMI buffer pH 7.4 for 2 hours. Concanavalin A (Con A, 20 μg/ml) was then added to stimulate the cells overnight in 5% CO2 at 37° C. IL-4 and IL-10 cytokine levels in the conditioned medium were then quantified using a sandwich ELISA kit. Compounds were screened at 10, 1, 0.1, 0.01 and 0.001 μM.
smiles,measurement,setting,value
CCN(CC)CCNc1ccc2ncn3c4ccc(O)cc4c(=O)c1c23 [Symadex™],MEAN FOLD CHANGE OVER CONTROL,[1]; gene MAPT,−26.53
same,MEAN FOLD CHANGE OVER CONTROL,[1]; gene MAZ,−1.89
same,MEAN FOLD CHANGE OVER CONTROL,[1]; gene MCM6,−1.97
same,MEAN FOLD CHANGE OVER CONTROL,[1]; gene MCM7,−2.69
same,MEAN FOLD CHANGE OVER CONTROL,[1]; gene MEA,−2.39
same,MEAN FOLD CHANGE OVER CONTROL,[1]; gene MGAT4A,−10.83
same,MEAN FOLD CHANGE OVER CONTROL,[1]; gene MIS12,−2.20
same,MEAN FOLD CHANGE OVER CONTROL,[1]; gene MPZL1,−2.04
same,MEAN FOLD CHANGE OVER CONTROL,[1]; gene MRPL1,−2.02
same,MEAN FOLD CHANGE OVER CONTROL,[1]; gene MRPL11,−2.97
same,MEAN FOLD CHANGE OVER CONTROL,[1]; gene MRPL13,−2.16
same,MEAN FOLD CHANGE OVER CONTROL,[1]; gene MRPL23,−2.29
same,MEAN FOLD CHANGE OVER CONTROL,[1]; gene MRPL39,−2.20
same,MEAN FOLD CHANGE OVER CONTROL,[1]; gene MSLN,−17.46
same,MEAN FOLD CHANGE OVER CONTROL,[1]; gene MT1A,−16.21
same,MEAN FOLD CHANGE OVER CONTROL,[1]; gene MT2A,−2.09
same,MEAN FOLD CHANGE OVER CONTROL,[1]; gene MTIF2,−59.05
same,MEAN FOLD CHANGE OVER CONTROL,[1]; gene MXD3,−2.66
same,MEAN FOLD CHANGE OVER CONTROL,[1]; gene MYBPC2,−21.22
same,MEAN FOLD CHANGE OVER CONTROL,[1]; gene MYO15A,−50.59
same,MEAN FOLD CHANGE OVER CONTROL,[1]; gene NCF1,−33.67
same,MEAN FOLD CHANGE OVER CONTROL,[1]; gene NCF2,−21.83
same,MEAN FOLD CHANGE OVER CONTROL,[1]; gene NDUFA6,−2.51
same,MEAN FOLD CHANGE OVER CONTROL,[1]; gene NDUFB3,−15.58
same,MEAN FOLD CHANGE OVER CONTROL,[1]; gene NDUFV3,−10.52
same,MEAN FOLD CHANGE OVER CONTROL,[1]; gene NEB,−6.89
same,MEAN FOLD CHANGE OVER CONTROL,[1]; gene NFATC1,−16.69
same,MEAN FOLD CHANGE OVER CONTROL,[1]; gene NFKBIB,−2.01
same,MEAN FOLD CHANGE OVER CONTROL,[1]; gene NMI,−2.41
same,MEAN FOLD CHANGE OVER CONTROL,[1]; gene NMU,−2.12
same,MEAN FOLD CHANGE OVER CONTROL,[1]; gene NR0B1,−15.94
same,MEAN FOLD CHANGE OVER CONTROL,[1]; gene NR2E1,−54.82
same,MEAN FOLD CHANGE OVER CONTROL,[1]; gene NR2E3,−14.89
same,MEAN FOLD CHANGE OVER CONTROL,[1]; gene NRG1,−17.54
same,MEAN FOLD CHANGE OVER CONTROL,[1]; gene NT5C3,−2.08
same,MEAN FOLD CHANGE OVER CONTROL,[1]; gene NT5E,−17.10
same,MEAN FOLD CHANGE OVER CONTROL,[1]; gene NTHL1,−2.34
same,MEAN FOLD CHANGE OVER CONTROL,[1]; gene NUCKS,−2.02
same,MEAN FOLD CHANGE OVER CONTROL,[1]; gene NUDT1,−1.89
same,MEAN FOLD CHANGE OVER CONTROL,[1]; gene NUP107,−2.68
same,MEAN FOLD CHANGE OVER CONTROL,[1]; gene OLR1,−16.33
same,MEAN FOLD CHANGE OVER CONTROL,[1]; gene OXCT,−2.68
same,MEAN FOLD CHANGE OVER CONTROL,[1]; gene PAFAH1B1,−12.85
same,MEAN FOLD CHANGE OVER CONTROL,[1]; gene PAFAH1B2,−2.25
same,MEAN FOLD CHANGE OVER CONTROL,[1]; gene PAICS,−2.03
same,MEAN FOLD CHANGE OVER CONTROL,[1]; gene PCDH7,−19.65
same,MEAN FOLD CHANGE OVER CONTROL,[1]; gene PCSK2,−16.89
same,MEAN FOLD CHANGE OVER CONTROL,[1]; gene PDCD5,−2.21
same,MEAN FOLD CHANGE OVER CONTROL,[1]; gene PDE11A,−16.85
same,MEAN FOLD CHANGE OVER CONTROL,[1]; gene PECAM1,−17.53
same,MEAN FOLD CHANGE OVER CONTROL,[1]; gene PFKL,−10.55
same,MEAN FOLD CHANGE OVER CONTROL,[1]; gene PHAX,−2.17
same,MEAN FOLD CHANGE OVER CONTROL,[1]; gene PHF5A,−2.95
same,MEAN FOLD CHANGE OVER CONTROL,[1]; gene PIR51,−3.73
same,MEAN FOLD CHANGE OVER CONTROL,[1]; gene PLK4,−2.39
same,MEAN FOLD CHANGE OVER CONTROL,[1]; gene PLXNA3,−8.04
same,fold down-regulation of SULT4A1,"[1]; gene SULT4A1, text statement",~300 fold
same,fold down-regulation of the SYNE1 spectrin repeats,"[1]; gene SYNE1, text statement",1500 fold
same,inhibition at 0.001 µM,"IL-4; 1 nM, read-out: % Growth Inhibition",8%
same,inhibition at 0.01 µM,"IL-4; 10 nM, read-out: % Growth Inhibition",7%
same,inhibition at 0.1 µM,"IL-4; 0.1 μM, read-out: % Growth Inhibition",2%
same,inhibition at 1 µM,"IL-4; 1 μM, read-out: % Growth Inhibition",-9%
same,inhibition at 10 µM,"IL-4; 10 μM, read-out: % Growth Inhibition",105%
same,pIC50,IL-4; IL-4 release,5.48
